Reference: ChEMBL document CHEMBL2074247, “Induction of P-glycoprotein expression by HIV protease inhibitors in cell culture” (AIDS, 2000)

What follows are compounds tested against ATP-dependent translocase ABCB1 (Homo sapiens, UniProt P08183) (assay: TP_TRANSPORTER: Western blot, LS-180V).
Sequence of ATP-dependent translocase ABCB1 (P08183 whole entry): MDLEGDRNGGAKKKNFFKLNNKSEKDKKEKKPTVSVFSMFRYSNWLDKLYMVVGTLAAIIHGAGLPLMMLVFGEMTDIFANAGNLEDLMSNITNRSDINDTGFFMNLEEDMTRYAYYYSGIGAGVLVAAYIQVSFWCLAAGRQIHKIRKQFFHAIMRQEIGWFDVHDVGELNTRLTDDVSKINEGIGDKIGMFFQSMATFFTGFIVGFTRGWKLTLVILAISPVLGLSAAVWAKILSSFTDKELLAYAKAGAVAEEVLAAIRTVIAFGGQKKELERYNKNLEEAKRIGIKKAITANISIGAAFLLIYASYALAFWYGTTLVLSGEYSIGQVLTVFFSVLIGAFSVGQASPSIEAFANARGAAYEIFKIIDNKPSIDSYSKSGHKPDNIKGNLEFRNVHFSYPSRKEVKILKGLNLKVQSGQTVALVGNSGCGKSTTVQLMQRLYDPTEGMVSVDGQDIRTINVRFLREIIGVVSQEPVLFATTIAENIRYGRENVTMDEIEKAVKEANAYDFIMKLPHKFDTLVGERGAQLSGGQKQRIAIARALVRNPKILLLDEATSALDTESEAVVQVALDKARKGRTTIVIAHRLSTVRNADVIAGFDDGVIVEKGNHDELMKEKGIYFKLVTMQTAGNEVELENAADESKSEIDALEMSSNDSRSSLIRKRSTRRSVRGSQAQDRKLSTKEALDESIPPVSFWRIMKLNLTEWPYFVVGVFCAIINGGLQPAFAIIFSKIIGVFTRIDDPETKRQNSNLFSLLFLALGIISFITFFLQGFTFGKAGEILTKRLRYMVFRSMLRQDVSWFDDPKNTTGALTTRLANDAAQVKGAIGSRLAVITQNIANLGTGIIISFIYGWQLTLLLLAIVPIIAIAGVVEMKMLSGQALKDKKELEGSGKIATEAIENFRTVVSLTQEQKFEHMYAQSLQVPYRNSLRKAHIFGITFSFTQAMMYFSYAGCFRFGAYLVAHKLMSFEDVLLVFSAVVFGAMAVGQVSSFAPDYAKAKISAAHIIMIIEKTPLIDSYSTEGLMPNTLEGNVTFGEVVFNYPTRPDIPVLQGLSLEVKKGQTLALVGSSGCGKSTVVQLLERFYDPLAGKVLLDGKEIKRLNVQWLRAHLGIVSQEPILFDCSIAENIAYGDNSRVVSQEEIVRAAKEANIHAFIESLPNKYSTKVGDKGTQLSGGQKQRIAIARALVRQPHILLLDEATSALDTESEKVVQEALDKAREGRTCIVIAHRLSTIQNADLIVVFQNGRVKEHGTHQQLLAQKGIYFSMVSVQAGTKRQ
Format: functional, cell-based
With `CC(C)CN(C[C@@H](O)[C@H](Cc1ccccc1)NC(=O)O[C@H]1CCOC1)S(=O)(=O)c1ccc(N)cc1` [AMPRENAVIR] the Activity was “inducer [+]”.
In the case of `CC(C)(C)NC(=O)[C@@H]1CN(Cc2cccnc2)CCN1C[C@@H](O)C[C@@H](Cc1ccccc1)C(=O)N[C@H]1c2ccccc2C[C@H]1O.O` [INDINAVIR], the Activity is reported as “inducer [+]”.
In the case of `Cc1c(O)cccc1C(=O)N[C@@H](CSc1ccccc1)[C@H](O)CN1C[C@H]2CCCC[C@H]2C[C@H]1C(=O)NC(C)(C)C` [NELFINAVIR], the Activity is reported as “inducer [+]”.
In the case of `CC(C)(C)NC(=O)[C@@H]1C[C@@H]2CCCC[C@@H]2CN1C[C@@H](O)[C@H](Cc1ccccc1)NC(=O)[C@H](CC(N)=O)NC(=O)c1ccc2ccccc2n1` [SAQUINAVIR], the Activity is reported as “inducer [+]”.
For `COc1ccc(CCN(C)CCCC(C#N)(c2ccc(OC)c(OC)c2)C(C)C)cc1OC` (stereo not given) [VERAPAMIL], the Activity was “inducer [+]”.
